Data published in patent US20250382332A1, “NOVEL ALPHA-FACTOR BASED PEPTIDES WITH ANTIFUNGAL ACTIVITY” (INVAIO SCIENCES, INC., priority 2024, published 2025).
Peptide text beside a SMILES is read from it.

Test system: Botrytis cinerea (B05.10)
Test: Resazurin antifungal assay of 180 alpha-factor peptide variants towards Botrytis (Example 2)
Format: cell-based
Settings: % inhibition of fungal growth, Botrytis conidia, resazurin; for Inhibition at 10 μM: peptide 10 μM; for Inhibition at 20 μM: peptide 20 μM; for Inhibition at 50 μM: peptide 50 μM; for Inhibition at 100 μM: peptide 100 μM; for Inhibition at 15 μM: peptide 15 μM
Summary of the method: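 Resazurin viability read-out (570/620 nm fluorescence) after a 24 h, 20° C incubation of B05.10 conidia, 5000 per well, with peptide at final 10-100 μM. Growth inhibition (%) was derived by subtracting conidia-only fluorescence; four replicates per treatment.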

SMILES | Inhibition at 10 μM | Inhibition at 20 μM | Inhibition at 50 μM | Inhibition at 100 μM | Inhibition at 15 μM
CSCC[C@H](NC(=O)[C@@H]1CCCN1C(=O)[C@H](CCC(N)=O)NC(=O)CNC(=O)[C@@H]1CCCN1C(=O)[C@H](CCCCN)NC(=O)[C@H](CC(C)C)NC(=O)[C@H](CO)NC(=O)[C@H](CC(C)C)NC(=O)[C@H](Cc1ccccc1)NC(=O)[C@H](Cc1c[nH]cn1)NC(=O)[C@@H](N)CCCCN)C(=O)N[C@@H](Cc1ccc(O)cc1)C(=O)O [compound 107] (H-KHFLSLKPGQPMY-OH; N-terminus and C-terminus assumed) | <90% | <90% | <90% | 98.74% | 
CSCC[C@H](NC(=O)[C@@H]1CCCN1C(=O)[C@H](CCC(N)=O)NC(=O)CNC(=O)[C@@H]1CCCN1C(=O)[C@H](Cc1c[nH]c2ccccc12)NC(=O)[C@H](Cc1ccccc1)NC(=O)[C@H](CCC(N)=O)NC(=O)[C@@H](NC(=O)[C@H](CO)NC(=O)[C@H](Cc1c[nH]cn1)NC(=O)[C@@H](N)Cc1c[nH]c2ccccc12)C(C)C)C(=O)N[C@@H](Cc1ccc(O)cc1)C(=O)O [compound 178] (H-WHSVQFWPGQPMY-OH; N-terminus and C-terminus assumed) |  |  | <90% | 97.30% | 
CSCC[C@H](NC(=O)[C@@H]1CCCN1C(=O)[C@H](CCC(N)=O)NC(=O)CNC(=O)[C@@H]1CCCN1C(=O)[C@H](CCCCN)NC(=O)[C@H](CC(C)C)NC(=O)[C@H](CO)NC(=O)[C@H](CC(C)C)NC(=O)[C@@H](NC(=O)CNC(=O)[C@@H](N)CCCCN)[C@@H](C)O)C(=O)N[C@@H](Cc1ccc(O)cc1)C(=O)O [compound 164] (H-KGTLSLKPGQPMY-OH; N-terminus and C-terminus assumed) |  |  | <90% | <90% | 
CSCC[C@H](NC(=O)[C@@H]1CCCN1C(=O)[C@H](CCC(N)=O)NC(=O)CNC(=O)[C@@H]1CCCN1C(=O)[C@H](CCCCN)NC(=O)[C@H](CC(C)C)NC(=O)[C@H](CO)NC(=O)[C@@H](NC(=O)[C@H](Cc1c[nH]c2ccccc12)NC(=O)[C@H](Cc1c[nH]cn1)NC(=O)[C@@H]1CCCN1)C(C)C)C(=O)N[C@@H](Cc1ccc(O)cc1)C(=O)O [compound 160] (H-PHWVSLKPGQPMY-OH; N-terminus and C-terminus assumed) |  |  | <90% | <90% | 
CSCC[C@H](NC(=O)[C@@H]1CCCN1C(=O)[C@H](CCC(N)=O)NC(=O)CNC(=O)[C@H](CCCCN)NC(=O)[C@H](CCCCN)NC(=O)[C@H](Cc1ccccc1)NC(=O)[C@H](CO)NC(=O)CNC(=O)[C@H](Cc1c[nH]c2ccccc12)NC(=O)[C@H](Cc1c[nH]cn1)NC(=O)[C@@H]1CCCN1)C(=O)N[C@@H](Cc1ccc(O)cc1)C(=O)O [compound 2] (H-PHWGSFKKGQPMY-OH; N-terminus and C-terminus assumed) | <90% | <90% | 100% | 100% | 
CSCC[C@H](NC(=O)[C@@H]1CCCN1C(=O)[C@H](CCC(N)=O)NC(=O)CNC(=O)[C@@H](NC(=O)[C@H](CCCCN)NC(=O)[C@H](CC(C)C)NC(=O)[C@H](CCCNC(=N)N)NC(=O)[C@@H](NC(=O)[C@H](Cc1c[nH]c2ccccc12)NC(=O)[C@H](CCCCN)NC(=O)[C@@H](N)Cc1c[nH]c2ccccc12)C(C)C)[C@@H](C)O)C(=O)N[C@@H](Cc1ccc(O)cc1)C(=O)O [compound 53] (H-WKWVRLKTGQPMY-OH; N-terminus and C-terminus assumed) | <90% | 100% | 100% | 100% | <90%
CSCC[C@H](NC(=O)CNC(=O)[C@H](CCC(N)=O)NC(=O)CNC(=O)[C@@H]1CCCN1C(=O)[C@H](CCCCN)NC(=O)[C@H](Cc1ccccc1)NC(=O)[C@H](CCC(=O)O)NC(=O)[C@H](CC(C)C)NC(=O)[C@H](CC(=O)O)NC(=O)[C@H](Cc1c[nH]cn1)NC(=O)[C@@H]1CCCN1)C(=O)N[C@@H](Cc1ccc(O)cc1)C(=O)O [compound 126] (H-PHDLEFKPGQGMY-OH; N-terminus and C-terminus assumed) |  |  | <90% | <90% | 
CSCC[C@H](NC(=O)[C@@H]1CCCN1C(=O)[C@H](CCC(=O)O)NC(=O)CNC(=O)[C@@H]1CCCN1C(=O)[C@H](CCCCN)NC(=O)[C@H](Cc1ccccc1)NC(=O)[C@H](CCC(N)=O)NC(=O)[C@H](CC(C)C)NC(=O)[C@@H](NC(=O)[C@H](Cc1c[nH]cn1)NC(=O)[C@@H](N)CCCCN)C(C)C)C(=O)N[C@@H](Cc1ccc(O)cc1)C(=O)O [compound 38] (H-KHVLQFKPGEPMY-OH; N-terminus and C-terminus assumed) |  |  | <90% | <90% | 
CSCC[C@H](NC(=O)[C@@H]1CCCN1C(=O)[C@H](CCC(=O)O)NC(=O)CNC(=O)[C@@H]1CCCN1C(=O)[C@H](CCCCN)NC(=O)[C@H](Cc1ccccc1)NC(=O)[C@H](CCC(N)=O)NC(=O)CNC(=O)[C@H](CC(C)C)NC(=O)[C@H](Cc1c[nH]cn1)NC(=O)[C@@H](N)Cc1c[nH]c2ccccc12)C(=O)N[C@@H](Cc1ccc(O)cc1)C(=O)O [compound 171] (H-WHLGQFKPGEPMY-OH; N-terminus and C-terminus assumed) |  |  | <90% | <90% | 
CSCC[C@H](NC(=O)[C@@H]1CCCN1C(=O)[C@H](CCC(N)=O)NC(=O)CNC(=O)[C@@H]1CCCN1C(=O)[C@H](Cc1ccccc1)NC(=O)[C@H](CC(C)C)NC(=O)[C@H](CCCCN)NC(=O)[C@H](CC(C)C)NC(=O)[C@H](Cc1c[nH]c2ccccc12)NC(=O)[C@H](Cc1c[nH]cn1)NC(=O)[C@@H](N)CCCCN)C(=O)N[C@@H](Cc1ccc(O)cc1)C(=O)O [compound 61] (H-KHWLKLFPGQPMY-OH; N-terminus and C-terminus assumed) | <90% | 98.64% | 100% | 100% | <90%
CSCC[C@H](NC(=O)[C@@H]1CCCN1C(=O)[C@H](CCC(N)=O)NC(=O)CNC(=O)[C@@H]1CCCN1C(=O)[C@H](CCCCN)NC(=O)[C@H](CC(C)C)NC(=O)[C@H](CC(N)=O)NC(=O)[C@H](CC(C)C)NC(=O)[C@H](Cc1c[nH]c2ccccc12)NC(=O)[C@H](CCC(=O)O)NC(=O)[C@@H](N)CCCCN)C(=O)N[C@@H](Cc1ccc(O)cc1)C(=O)O [compound 151] (H-KEWLNLKPGQPMY-OH; N-terminus and C-terminus assumed) |  |  | <90% | <90% | 
CSCC[C@H](NC(=O)[C@@H]1CCCN1C(=O)[C@H](CCSC)NC(=O)CNC(=O)[C@@H](NC(=O)[C@H](CCCCN)NC(=O)[C@H](CC(C)C)NC(=O)[C@H](CCC(=O)O)NC(=O)[C@H](CC(C)C)NC(=O)[C@H](Cc1c[nH]c2ccccc12)NC(=O)[C@H](CS)NC(=O)[C@@H](N)CCCCN)[C@@H](C)O)C(=O)N[C@@H](Cc1ccc(O)cc1)C(=O)O [compound 35] (H-KCWLELKTGMPMY-OH; N-terminus and C-terminus assumed) |  |  | <90% | 97.61% | 
CSCC[C@H](NC(=O)[C@@H]1CCCN1C(=O)[C@H](CCC(N)=O)NC(=O)CNC(=O)[C@@H]1CCCN1C(=O)[C@H](CCCCN)NC(=O)[C@H](CC(C)C)NC(=O)[C@H](CCC(=O)O)NC(=O)[C@H](CC(C)C)NC(=O)[C@H](Cc1ccccc1)NC(=O)[C@H](Cc1c[nH]cn1)NC(=O)[C@@H](N)CCCCN)C(=O)N[C@@H](Cc1ccc(O)cc1)C(=O)O [compound 179] (H-KHFLELKPGQPMY-OH; N-terminus and C-terminus assumed) |  |  | <90% | <90% | 
CSCC[C@H](NC(=O)[C@@H]1CCCN1C(=O)[C@H](CCC(N)=O)NC(=O)CNC(=O)[C@H](CCCNC(=N)N)NC(=O)[C@H](CCCCN)NC(=O)[C@H](Cc1ccccc1)NC(=O)[C@H](CCC(N)=O)NC(=O)[C@@H](NC(=O)[C@H](Cc1ccccc1)NC(=O)[C@H](CCC(=O)O)NC(=O)[C@@H](N)Cc1c[nH]c2ccccc12)C(C)C)C(=O)N[C@@H](Cc1ccc(O)cc1)C(=O)O [compound 166] (H-WEFVQFKRGQPMY-OH; N-terminus and C-terminus assumed) |  |  | <90% | <90% | 
CC[C@H](C)[C@H](NC(=O)CNC(=O)[C@H](Cc1c[nH]cn1)NC(=O)[C@@H](N)Cc1c[nH]c2ccccc12)C(=O)N[C@@H](CCC(N)=O)C(=O)N[C@@H](CC(C)C)C(=O)N[C@@H](Cc1ccccc1)C(=O)N[C@@H](CCCCN)C(=O)NCC(=O)N[C@@H](CCC(N)=O)C(=O)N1CCC[C@H]1C(=O)N[C@@H](CCSC)C(=O)N[C@@H](Cc1ccc(O)cc1)C(=O)O [compound 124] (H-WHGIQLFKGQPMY-OH; N-terminus and C-terminus assumed) |  |  | <90% | 100% | 
CC[C@H](C)[C@H](NC(=O)[C@H](Cc1c[nH]c2ccccc12)NC(=O)[C@H](CCC(=O)O)NC(=O)[C@@H]1CCCN1)C(=O)N[C@@H](CCC(N)=O)C(=O)N[C@@H](CC(C)C)C(=O)N[C@@H](CCCCN)C(=O)N[C@H](C(=O)NCC(=O)N[C@@H](CCSC)C(=O)N1CCC[C@H]1C(=O)N[C@@H](CCSC)C(=O)N[C@@H](Cc1ccc(O)cc1)C(=O)O)[C@@H](C)O [compound 40] (H-PEWIQLKTGMPMY-OH; N-terminus and C-terminus assumed) |  |  | <90% | <90% | 
CSCC[C@H](NC(=O)[C@@H]1CCCN1C(=O)[C@H](CCC(N)=O)NC(=O)CNC(=O)[C@H](CCCNC(=N)N)NC(=O)[C@H](CCC(N)=O)NC(=O)[C@H](Cc1ccccc1)NC(=O)[C@H](CCC(=O)O)NC(=O)[C@H](CC(C)C)NC(=O)[C@H](Cc1c[nH]c2ccccc12)NC(=O)[C@H](Cc1c[nH]cn1)NC(=O)[C@@H](N)Cc1c[nH]c2ccccc12)C(=O)N[C@@H](Cc1ccc(O)cc1)C(=O)O [compound 167] (H-WHWLEFQRGQPMY-OH; N-terminus and C-terminus assumed) |  |  | <90% | <90% | 
